Experimental data: publication PMC8330742, “New benzothieno[2,3-c]pyridines as non-steroidal CYP17 inhibitors: design, synthesis, anticancer screening, apoptosis induction, and in silico ADME profile studies” (Journal of Enzyme Inhibition and Medicinal Chemistry, 2021)

Tests used:
[1] = system: SW-620; experiment: NCI-60 SRB screen; assay type: cell-based; settings: Homo sapiens; SW-620; single dose 10^−5 M; read-out: Growth inhibition (%)
[2] = system: 786-0; experiment: NCI-60 SRB screen; assay type: cell-based; settings: Homo sapiens; 786-0; single dose 10^−5 M; read-out: Growth inhibition (%)
[3] = system: UACC-62; experiment: NCI-60 SRB screen; assay type: cell-based, human; settings: Homo sapiens; UACC-62; single dose 10^−5 M; read-out: Growth inhibition (%)
[4] = system: HCT-116; experiment: NCI-60 SRB screen; assay type: cell-based, human; settings: Homo sapiens; HCT-116; single dose 10^−5 M; read-out: Growth inhibition (%)
[5] = system: TK-10; experiment: NCI-60 SRB screen; assay type: cell-based, human; settings: Homo sapiens; TK-10; single dose 10^−5 M; read-out: Growth inhibition (%)
[6] = system: panel of 60 cancer cell lines; experiment: NCI-60 SRB screen, mean or range over the panel; assay type: cell-based, human; settings: Homo sapiens; mean over the cell lines; single dose 10^−5 M; read-out: Mean growth inhibition (%)
[7] = system: HCT-15; experiment: NCI-60 SRB screen; assay type: cell-based, human; settings: Homo sapiens; HCT-15; single dose 10^−5 M; read-out: Growth inhibition (%)
[8] = system: ACHN; experiment: NCI-60 SRB screen; assay type: cell-based; settings: Homo sapiens, single dose 10^−5 M, read-out: Growth inhibition (%)
[9] = system: SK-MEL-2; experiment: NCI-60 SRB screen; assay type: cell-based, human; settings: Homo sapiens; SK-MEL-2; single dose 10^−5 M; read-out: Growth inhibition (%)
[10] = system: HOP-62; experiment: NCI-60 SRB screen; assay type: cell-based, human; settings: Homo sapiens; HOP-62; single dose 10^−5 M; read-out: Growth inhibition (%)
[11] = system: A549/ATCC; experiment: NCI-60 SRB screen; assay type: cell-based, human; settings: Homo sapiens, single dose 10^−5 M, read-out: Growth inhibition (%)
[12] = system: COLO 205; experiment: NCI-60 SRB screen; assay type: cell-based, human; settings: Homo sapiens; COLO 205; single dose 10^−5 M; read-out: Growth inhibition (%)
[13] = system: CAKI-1; experiment: NCI-60 SRB screen; assay type: cell-based, human; settings: Homo sapiens; CAKI-1; single dose 10^−5 M; read-out: Growth inhibition (%)
[14] = system: EKVX; experiment: NCI-60 SRB screen; assay type: cell-based, human; settings: Homo sapiens, single dose 10^−5 M, read-out: Growth inhibition (%)
[15] = system: HCC-2998; experiment: NCI-60 SRB screen; assay type: cell-based, human; settings: Homo sapiens; HCC-2998; single dose 10^−5 M; read-out: Growth inhibition (%)
[16] = system: NCI-H226; experiment: NCI-60 SRB screen; assay type: cell-based, human; settings: Homo sapiens; NCI-H226; single dose 10^−5 M; read-out: Growth inhibition (%)
[17] = system: NCI/ADR-RES; experiment: NCI-60 SRB screen; assay type: cell-based, human; settings: Homo sapiens, single dose 10^−5 M, read-out: Growth inhibition (%)
[18] = system: OVCAR-8; experiment: NCI-60 SRB screen; assay type: cell-based, human; settings: Homo sapiens; OVCAR-8; single dose 10^−5 M; read-out: Growth inhibition (%)
[19] = system: IGROV1; experiment: NCI-60 SRB screen; assay type: cell-based, human; settings: Homo sapiens, IGROV-1; IGROV1; single dose 10^−5 M; read-out: Growth inhibition (%)
[20] = system: UO-31; experiment: NCI-60 SRB screen; assay type: cell-based, human; settings: Homo sapiens; UO-31; single dose 10^−5 M; read-out: Growth inhibition (%)
[21] = system: UACC-257; experiment: NCI-60 SRB screen; assay type: cell-based, human; settings: Homo sapiens, UACC-257; UACC-275 (so in the source); single dose 10^−5 M; read-out: Growth inhibition (%)
[22] = system: OVCAR-4; experiment: NCI-60 SRB screen; assay type: cell-based, human; settings: Homo sapiens; OVCAR-4; single dose 10^−5 M; read-out: Growth inhibition (%)
[23] = system: SF-295; experiment: NCI-60 SRB screen; assay type: cell-based, human; settings: Homo sapiens; SF-295; single dose 10^−5 M; read-out: Growth inhibition (%)
[24] = system: LOX IMVI; experiment: NCI-60 SRB screen; assay type: cell-based, human; settings: Homo sapiens, single dose 10^−5 M, read-out: Growth inhibition (%)
[25] = system: K-562; experiment: NCI-60 SRB screen; assay type: cell-based, human; settings: Homo sapiens, K562; K-562; single dose 10^−5 M; read-out: Growth inhibition (%)
[26] = system: CCRF-CEM; experiment: NCI-60 SRB screen; assay type: cell-based; settings: Homo sapiens, single dose 10^−5 M, read-out: Growth inhibition (%)
[27] = system: MALME-3M; experiment: NCI-60 SRB screen; assay type: cell-based, human; settings: Homo sapiens, single dose 10^−5 M, read-out: Growth inhibition (%)
[28] = system: HOP-92; experiment: NCI-60 SRB screen; assay type: cell-based, human; settings: Homo sapiens; HOP-92; single dose 10^−5 M; read-out: Growth inhibition (%)
[29] = system: SF-268; experiment: NCI-60 SRB screen; assay type: cell-based, human; settings: Homo sapiens; SF-268; single dose 10^−5 M; read-out: Growth inhibition (%)
[30] = system: NCI-H23; experiment: NCI-60 SRB screen; assay type: cell-based, human; settings: Homo sapiens; NCI-H23; single dose 10^−5 M; read-out: Growth inhibition (%)
[31] = system: SN12C; experiment: NCI-60 SRB screen; assay type: cell-based, human; settings: Homo sapiens, SN12C; SN 12 C; single dose 10^−5 M; read-out: Growth inhibition (%)
[32] = system: M14; experiment: NCI-60 SRB screen; assay type: cell-based, human; settings: Homo sapiens; M14; single dose 10^−5 M; read-out: Growth inhibition (%)
[33] = system: RXF 393; experiment: NCI-60 SRB screen; assay type: cell-based, human; settings: Homo sapiens; RXF 393; single dose 10^−5 M; read-out: Growth inhibition (%)
[34] = system: HL-60(TB); experiment: NCI-60 SRB screen; assay type: cell-based, human; settings: Homo sapiens; HL-60 (TB); single dose 10^−5 M; read-out: Growth inhibition (%)
[35] = system: OVCAR-3; experiment: NCI-60 SRB screen; assay type: cell-based, human; settings: Homo sapiens; OVCAR-3; single dose 10^−5 M; read-out: Growth inhibition (%)
[36] = system: NCI-H522; experiment: NCI-60 SRB screen; assay type: cell-based, human; settings: Homo sapiens; NCI-H522; single dose 10^−5 M; read-out: Growth inhibition (%)
[37] = system: SK-MEL-28; experiment: NCI-60 SRB screen; assay type: cell-based; settings: Homo sapiens; SK-MEL-28; single dose 10^−5 M; read-out: Growth inhibition (%)
[38] = system: SK-MEL-5; experiment: NCI-60 SRB screen; assay type: cell-based, human; settings: Homo sapiens; SK-MEL-5; single dose 10^−5 M; read-out: Growth inhibition (%)
[39] = system: KM12; experiment: NCI-60 SRB screen; assay type: cell-based, human; settings: Homo sapiens; KM12; single dose 10^−5 M; read-out: Growth inhibition (%)
[40] = system: SK-OV-3; experiment: NCI-60 SRB screen; assay type: cell-based, human; settings: Homo sapiens; SK-OV-3; single dose 10^−5 M; read-out: Growth inhibition (%)
[41] = system: NCI-H460; experiment: NCI-60 SRB screen; assay type: cell-based, human; settings: Homo sapiens; NCI-H460; single dose 10^−5 M; read-out: Growth inhibition (%)
[42] = system: HT-29; experiment: NCI-60 SRB screen; assay type: cell-based; settings: Homo sapiens; HT-29; single dose 10^−5 M; read-out: Growth inhibition (%)
[43] = system: NCI-H322M; experiment: NCI-60 SRB screen; assay type: cell-based, human; settings: Homo sapiens, single dose 10^−5 M, read-out: Growth inhibition (%)
[44] = system: MOLT-4; experiment: NCI-60 SRB screen; assay type: cell-based; settings: Homo sapiens; MOLT-4; single dose 10^−5 M; read-out: Growth inhibition (%)

N#CC1C(=O)NC(c2cccc([N+](=O)[O-])c2)c2sc3c(F)cccc3c21 (stereo not shown) [Compound 5d, 4-Cyano-8-fluoro-1-(3-nitrophenyl)-1,2-dihydro[1]benzothieno[2,3-c] pyridin-3(4H)-one]
inhibition at 10 µM [1]: 7.44%
inhibition at 10 µM [2]: -6.8%
inhibition at 10 µM [3]: 12.2%
inhibition at 10 µM [4]: 7.78%
inhibition at 10 µM [5]: -58.3%
inhibition at 10 µM [6]: 5%
inhibition at 10 µM [7]: 0.05%
inhibition at 10 µM [8]: 13.5%
inhibition at 10 µM [9]: -13.1%
inhibition at 10 µM [10]: 21.4%
inhibition at 10 µM [11]: -6.53%
inhibition at 10 µM [12]: -14.8%
inhibition at 10 µM [13]: 14.4%
inhibition at 10 µM [14]: 11.5%
inhibition at 10 µM [15]: -14.2%
inhibition at 10 µM [16]: 3.95%
inhibition at 10 µM [17]: 2.18%
inhibition at 10 µM [18]: 5.37%
inhibition at 10 µM [19]: 36.6%
inhibition at 10 µM [20]: 41.3%
inhibition at 10 µM [21]: -19%
inhibition at 10 µM [22]: 9.55%
inhibition at 10 µM [23]: 1.95%
inhibition at 10 µM [24]: 17.4%
inhibition at 10 µM [25]: 8.17%
inhibition at 10 µM [26]: -0.08%
inhibition at 10 µM [27]: -12.1%
inhibition at 10 µM [28]: 17.2%
inhibition at 10 µM [29]: 16.4%
inhibition at 10 µM [30]: -0.19%
inhibition at 10 µM [31]: 5.16%
inhibition at 10 µM [32]: -8.86%
inhibition at 10 µM [33]: -7.73%
inhibition at 10 µM [34]: -0.44%
inhibition at 10 µM [35]: 9.36%
inhibition at 10 µM [36]: 22.4%
inhibition at 10 µM [37]: -21.6%
inhibition at 10 µM [38]: 4.83%
inhibition at 10 µM [39]: 5.7%
inhibition at 10 µM [40]: -0.9%
inhibition at 10 µM [41]: 18.1%
inhibition at 10 µM [42]: -2.29%
inhibition at 10 µM [43]: 4.25%
inhibition at 10 µM [44]: 18.9%

CCN1CCN(C2C(=O)NC(c3cccc([N+](=O)[O-])c3)c3sc4c(F)cccc4c32)CC1 (stereo not shown) [Compound 6a, 4-(4-Ethylpiperazin-1-yl)-8-fluoro-1-(3-nitrophenyl)-1,2-dihydro[1]benzo thieno[2,3-c]pyridin-3(4H)-one]
inhibition at 10 µM [1]: 5.15%
inhibition at 10 µM [2]: -15%
inhibition at 10 µM [3]: 8.9%
inhibition at 10 µM [4]: 6.68%
inhibition at 10 µM [5]: -51.9%
inhibition at 10 µM [6]: -0.71%
inhibition at 10 µM [7]: -7.17%
inhibition at 10 µM [8]: 6.81%
inhibition at 10 µM [9]: -13.3%
inhibition at 10 µM [10]: 8.57%
inhibition at 10 µM [11]: -7.34%
inhibition at 10 µM [12]: -13.8%
inhibition at 10 µM [13]: 18.4%
inhibition at 10 µM [14]: -2.24%
inhibition at 10 µM [15]: -18.1%
inhibition at 10 µM [16]: 10%
inhibition at 10 µM [17]: -2.46%
inhibition at 10 µM [18]: 2.02%
inhibition at 10 µM [19]: 16.4%
inhibition at 10 µM [20]: 35.8%
inhibition at 10 µM [21]: -14.7%
inhibition at 10 µM [22]: -6.65%
inhibition at 10 µM [23]: -3.39%
inhibition at 10 µM [24]: -2.53%
inhibition at 10 µM [25]: 11%
inhibition at 10 µM [26]: -2.46%
inhibition at 10 µM [27]: -3.44%
inhibition at 10 µM [28]: -1.02%
inhibition at 10 µM [29]: 7.67%
inhibition at 10 µM [30]: -1.88%
inhibition at 10 µM [31]: 2.15%
inhibition at 10 µM [32]: -1.65%
inhibition at 10 µM [33]: -24%
inhibition at 10 µM [34]: -2%
inhibition at 10 µM [35]: 0.35%
inhibition at 10 µM [36]: 0.67%
inhibition at 10 µM [37]: -13%
inhibition at 10 µM [38]: -1.71%
inhibition at 10 µM [39]: -0.94%
inhibition at 10 µM [40]: -1.47%
inhibition at 10 µM [41]: 0.82%
inhibition at 10 µM [42]: -2.32%
inhibition at 10 µM [43]: 0.49%
inhibition at 10 µM [44]: 9.9%
